Reference: US9233964B2, “Sulfamide piperazine derivatives as protein tyrosine kinase inhibitors and pharmaceutical use therof” (LEO PHARMA A/S, priority 2011, dated 2016)

How the values were obtained:
Type in all cases: biochemical
JAK2 = target: T1, JAK2 (Homo sapiens, UniProt O60674); assay: JAK kinase assay (HTRF, phosphorylation of synthetic peptide), JAK2; conditions: catalytic domain, ATP at Km (4 μM); read-out: JAK2 kinase inhibitory activity (EC50)
T1 construct: All four purified enzymes contain only the catalytic domain; His (N); purchased Carna Biosciences, Inc; host or cells: baculovirus expression system
Description: (§1) Human baculovirus-expressed JAK1, 2, 3 and TYK2 were purchased from Carna Biosciences, Inc. All four purified enzymes contain only the catalytic domain. JAK1 (aa 850-1154) and TYK2 (aa 871-1187) are expressed with an N-terminally fused GST-tag, and JAK2 and JAK3 with an N-terminally fused His-tag.
(§2) Inhibition of phosphorylation of a synthetic peptide was measured in an HTRF-based assay using the TK substrate-Biotin from the Cisbio HTRFKinEASE TK kit. First, 2 μl of TK solution (TK substrate-biotin in kinase buffer [1× enzymatic buffer from HTRFKinEASE TK kit, 1 mM DTT]) is added to a plate containing 1 μl prediluted compound (final assay concentration DMSO: 0.75%). Then, 5 μl kinase-ATP mix (prepared in kinase buffer) is added to the wells and the plates are incubated at RT for 20-30 min. For all four kinases a concentration of ATP that corresponded to the Km for ATP was used. The final concentrations of buffers, substrate, kinase and ATP were: JAK1: 50 mM Hepes buffer pH 7.0, 0.01% BSA, 10 mM MgCl2, 1 mM DTT, 7 μM ATP, 50 nM SEB, 1 μM TK Substrate-Biotin and 5 ng JAK1; JAK2: 50 mM Hepes buffer pH 7.0, 0.01% BSA, 5 mM MgCl2, 1 mM DTT, 4 μM ATP, 1 μM TK Substrate-Biotin and 0.1 ng JAK2; JAK3: 50 mM Hepes buffer pH 7.0, 0.01% BSA, 5 mM MgCl2, 1 mM DTT, 2 μM ATP, 1 μM TK Substrate-Biotin and 0.3 ng JAK3; TYK2: 50 mM Hepes buffer pH 7.0, 0.01% BSA, 5 mM MgCl2, 1 mM DTT, 13 μM ATP, 50 nM SEB, 1 μM TK Substrate-Biotin and 0.8 ng TYK2. Thereafter, the kinase reaction is stopped by adding 4 μl detection mix (final concentrations: 50 mM Hepes buffer pH 7.0, 0.01% BSA, 0.8 M KF, 20 mM EDTA, 42 nM Streptavidin-XL665 and 1:400 STK Ab Cryptate) and the plates are incubated overnight in the dark. The HTRF signal is read using an Envision plate reader.

JAK1 = target: T2, JAK1 (Homo sapiens, UniProt P23458); assay: JAK kinase assay (HTRF, phosphorylation of synthetic peptide), JAK1; conditions: catalytic domain, ATP at Km (7 μM); read-out: JAK1 kinase inhibitory activity (EC50)
T2 construct: JAK1 (aa 850-1154) and TYK2 (aa 871-1187) are expressed with an N-terminally fused GST-tag; GST (N); purchased Carna Biosciences, Inc; host or cells: baculovirus expression system
Description: as §1, §2

JAK3 = target: T3, JAK3 (Homo sapiens, UniProt P52333); assay: JAK kinase assay (HTRF, phosphorylation of synthetic peptide), JAK3; conditions: catalytic domain, ATP at Km (2 μM); read-out: JAK3 kinase inhibitory activity (EC50)
T3 construct: All four purified enzymes contain only the catalytic domain; His (N); purchased Carna Biosciences, Inc; host or cells: baculovirus expression system
Description: as §1, §2

TYK2 = target: T4, TYK2 (Homo sapiens, UniProt P29597); assay: JAK kinase assay (HTRF, phosphorylation of synthetic peptide), TYK2; conditions: catalytic domain, ATP at Km (13 μM); read-out: TYK2 kinase inhibitory activity (EC50)
T4 construct: JAK1 (aa 850-1154) and TYK2 (aa 871-1187) are expressed with an N-terminally fused GST-tag; GST (N); purchased Carna Biosciences, Inc; host or cells: baculovirus expression system
T4 sequence (P29597 871-1187): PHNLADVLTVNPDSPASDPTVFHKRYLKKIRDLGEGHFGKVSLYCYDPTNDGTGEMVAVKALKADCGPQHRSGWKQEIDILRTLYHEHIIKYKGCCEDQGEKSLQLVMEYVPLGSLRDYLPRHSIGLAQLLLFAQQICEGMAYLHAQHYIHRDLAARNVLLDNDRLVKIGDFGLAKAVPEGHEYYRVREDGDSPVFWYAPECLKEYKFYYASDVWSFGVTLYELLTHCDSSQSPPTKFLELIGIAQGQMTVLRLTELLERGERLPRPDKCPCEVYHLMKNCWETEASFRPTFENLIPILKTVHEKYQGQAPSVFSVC
Description: as §1, §2

T1 sequence (O60674 849-1124 limits assumed): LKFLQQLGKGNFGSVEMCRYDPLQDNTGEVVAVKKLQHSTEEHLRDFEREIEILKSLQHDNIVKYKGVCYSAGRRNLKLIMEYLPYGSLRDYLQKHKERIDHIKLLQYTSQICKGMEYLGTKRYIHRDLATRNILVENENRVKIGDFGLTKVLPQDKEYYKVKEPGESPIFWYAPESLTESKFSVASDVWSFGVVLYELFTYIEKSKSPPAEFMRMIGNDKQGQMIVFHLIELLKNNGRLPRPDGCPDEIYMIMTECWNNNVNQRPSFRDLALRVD
T2 sequence (P23458 850-1154): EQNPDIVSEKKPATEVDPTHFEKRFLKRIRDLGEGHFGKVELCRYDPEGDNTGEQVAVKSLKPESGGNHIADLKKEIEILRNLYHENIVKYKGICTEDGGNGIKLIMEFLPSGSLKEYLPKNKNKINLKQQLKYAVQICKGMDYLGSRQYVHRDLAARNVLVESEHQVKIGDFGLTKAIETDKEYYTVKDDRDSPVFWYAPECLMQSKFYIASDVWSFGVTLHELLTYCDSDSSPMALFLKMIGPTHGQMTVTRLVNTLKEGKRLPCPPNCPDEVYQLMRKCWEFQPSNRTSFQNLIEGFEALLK
T3 sequence (P52333 822-1111 limits assumed): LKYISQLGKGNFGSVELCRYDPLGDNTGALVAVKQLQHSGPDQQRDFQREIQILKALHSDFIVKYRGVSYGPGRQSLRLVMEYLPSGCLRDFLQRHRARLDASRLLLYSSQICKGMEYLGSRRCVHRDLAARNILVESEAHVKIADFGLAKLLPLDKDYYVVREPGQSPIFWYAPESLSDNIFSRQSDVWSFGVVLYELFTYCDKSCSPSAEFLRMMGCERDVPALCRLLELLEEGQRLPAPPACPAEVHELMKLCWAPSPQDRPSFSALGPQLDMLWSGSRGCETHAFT

| SMILES | EC50 (JAK2) | EC50 (JAK1) | EC50 (JAK3) | EC50 (TYK2) |
| --- | --- | --- | --- | --- |
| CCN(CC1CCC(F)(F)CC1)S(=O)(=O)N1CCN(c2ncnc3[nH]ccc23)CC12CC2 [Example 149, N-[(4,4-difluorocyclohexyl)methyl]-N-ethyl-5-(7H-pyrrolo[2,3-d]pyrimidin-4-yl)-5,8-diazaspiro[2.5]octane-8-sulfonamide] | < 100 nM | < 100 nM | < 100 nM | > 500 nM |
| O=S(=O)(N(CCCO)CCc1ccccc1)N1CCN(c2ncnc3[nH]ccc23)CC12CC2 [Example 5, 7-(7H-Pyrrolo[2,3-d]pyrimidin-4-yl)-4,7-diaza-spiro[2.5]octane-4-sulfonic acid (3-hydroxy-propyl)-phenethyl-amide] | < 100 nM | < 100 nM | < 100 nM | 100 to 500 nM |
| CN(CCCC#N)S(=O)(=O)N1CCN(c2ncnc3[nH]ccc23)CC12CC2 [Example 35, 7-(7H-Pyrrolo[2,3-d]pyrimidin-4-yl)-4,7-diaza-spiro[2.5]octane-4-sulfonic acid (3-cyano-propyl)-methyl-amide] | < 100 nM | < 100 nM | < 100 nM | < 100 nM |
| CN(C[C@@H]1CCCN1)S(=O)(=O)N1CCN(c2ncnc3[nH]ccc23)CC12CC2 [Int 52] | < 100 nM | < 100 nM | 100 to 500 nM | > 500 nM |
| O=S(=O)(N(CCOc1ccccc1)C1COC1)N1CCN(c2ncnc3[nH]ccc23)CC12CC2 [Example 115, N-(oxetan-3-yl)-N-(2-phenoxyethyl)-5-(7H-pyrrolo[2,3-d]pyrimidin-4-yl)-5,8-diazaspiro[2.5]octane-8-sulfonamide] | < 100 nM | < 100 nM | < 100 nM | 100 to 500 nM |
| CN(CC1CC1(F)F)S(=O)(=O)N1CCN(c2ncnc3[nH]ccc23)CC12CC2 (stereo not drawn) [Example 86, N-[(2,2-difluorocyclopropyl)methyl]-N-methyl-5-(7H-pyrrolo[2,3-d]pyrimidin-4-yl)-5,8-diazaspiro[2.5]octane-8-sulfonamide] | < 100 nM | < 100 nM | < 100 nM | < 100 nM |
| CN(C[C@H]1CCCN1C=O)S(=O)(=O)N1CCN(c2ncnc3[nH]ccc23)CC12CC2 [Example 188, N-[[(2R)-1-formylpyrrolidin-2-yl]methyl]-N-methyl-5-(7H-pyrrolo[2,3-d]pyrimidin-4-yl)-5,8-diazaspiro[2.5]octane-8-sulfonamide] | < 100 nM | < 100 nM | < 100 nM | 100 to 500 nM |
| O=S1(=O)CCC(CN(CCO)S(=O)(=O)N2CCN(c3ncnc4[nH]ccc34)CC23CC3)C1 (stereo not drawn) [Example 167, N-[(1,1-dioxothiolan-3-yl)methyl]-N-(2-hydroxyethyl)-5-(7H-pyrrolo[2,3-d]pyrimidin-4-yl)-5,8-diazaspiro[2.5]octane-8-sulfonamide] | < 100 nM | < 100 nM | < 100 nM | 100 to 500 nM |
| CCCC(C)NS(=O)(=O)N1CCN(c2ncnc3[nH]ccc23)CC12CC2 (stereo not drawn) [Example 143, N-(1-methylbutyl)-5-(7H-pyrrolo[2,3-d]pyrimidin-4-yl)-5,8-diazaspiro[2.5]octane-8-sulfonamide] | < 100 nM | < 100 nM | 100 to 500 nM | > 500 nM |
| CN(CC1CC(F)(F)C1)S(=O)(=O)N1CCN(c2ncnc3[nH]ccc23)CC12CC2 [Example 85, N-[(3,3-difluorocyclobutyl)methyl]-N-methyl-5-(7H-pyrrolo[2,3-d]pyrimidin-4-yl)-5,8-diazaspiro[2.5]octane-8-sulfonamide] | < 100 nM | < 100 nM | < 100 nM | < 100 nM |
| CN(CC1CCN(S(=O)(=O)CCCC#N)CC1)S(=O)(=O)N1CCN(c2ncnc3[nH]ccc23)CC12CC2 [Example 159, N-[[1-(3-cyanopropylsulfonyl)-4-piperidyl]methyl]-N-methyl-5-(7H-pyrrolo[2,3-d]pyrimidin-4-yl)-5,8-diazaspiro[2.5]octane-8-sulfonamide] | < 100 nM | < 100 nM | < 100 nM | 100 to 500 nM |
| CN(CC12C3C4C1C1C2C3C41C#N)S(=O)(=O)N1CCN(c2ncnc3[nH]ccc23)CC12CC2 (stereo not drawn) [Example 177, N-[(4-cyanocuban-1-yl)methyl]-N-methyl-5-(7H-pyrrolo[2,3-d]pyrimidin-4-yl)-5,8-diazaspiro[2.5]octane-8-sulfonamide] | < 100 nM | < 100 nM | < 100 nM | < 100 nM |
| CN(CC1CCOCC1)S(=O)(=O)N1CCN(c2ncnc3[nH]ccc23)CC12CC2 [Example 89, N-methyl-5-(7H-pyrrolo[2,3-d]pyrimidin-4-yl)-N-(tetrahydropyran-4-ylmethyl)-5,8-diazaspiro[2.5]octane-8-sulfonamide] | < 100 nM | < 100 nM | 100 to 500 nM | 100 to 500 nM |
| CN(C[C@@H]1CCC(=O)N1)S(=O)(=O)N1CCN(c2ncnc3[nH]ccc23)CC12CC2 [Example 183, N-methyl-N-[[(2S)-5-oxopyrrolidin-2-yl]methyl]-5-(7H-pyrrolo[2,3-d]pyrimidin-4-yl)-5,8-diazaspiro[2.5]octane-8-sulfonamide] | < 100 nM | < 100 nM | < 100 nM | < 100 nM |
| CN(C[C@@H]1CC(F)(F)CN1S(=O)(=O)CC1CC1)S(=O)(=O)N1CCN(c2ncnc3[nH]ccc23)CC12CC2 [Example 164, N-[[(2S)-1-(cyclopropylmethylsulfonyl)-4,4-difluoro-pyrrolidin-2-yl]methyl]-N-methyl-5-(7H-pyrrolo[2,3-d]pyrimidin-4-yl)-5,8-diazaspiro[2.5]octane-8-sulfonamide] | < 100 nM | < 100 nM | < 100 nM | < 100 nM |
| N#CCCCN(CCc1ccccc1)S(=O)(=O)N1CCN(c2ncnc3[nH]ccc23)CC12CC2 [Example 33, 7-(7H-Pyrrolo[2,3-d]pyrimidin-4-yl)-4,7-diaza-spiro[2.5]octane-4-sulfonic acid (3-cyano-propyl)-phenethyl-amide] | < 100 nM | < 100 nM | < 100 nM | – |
| O=S(=O)(NCCO)N1CCN(c2ncnc3[nH]ccc23)CC12CC2 [Example 53, 7-(7H-Pyrrolo[2,3-d]pyrimidin-4-yl)-4,7-diaza-spiro[2.5]octane-4-sulfonic acid (2-hydroxy-ethyl)-amide] | < 100 nM | < 100 nM | < 100 nM | – |
| N#CCCN(C1CC1)S(=O)(=O)N1CCN(c2ncnc3[nH]ccc23)CC12CC2 [Example 41, 7-(7H-Pyrrolo[2,3-d]pyrimidin-4-yl)-4,7-diaza-spiro[2.5]octane-4-sulfonic acid (2-cyano-ethyl)-cyclopropyl-amide] | < 100 nM | < 100 nM | < 100 nM | – |
| CN(Cc1ccc(C(F)(F)F)cc1)S(=O)(=O)N1CCN(c2ncnc3[nH]ccc23)CC12CC2 [Example 81, N-methyl-5-(7H-pyrrolo[2,3-d]pyrimidin-4-yl)-N-[[4-(trifluoromethyl)phenyl]methyl]-5,8-diazaspiro[2.5]octane-8-sulfonamide] | < 100 nM | < 100 nM | – | > 500 nM |
| N#CCCCCN(CCc1ccccc1)S(=O)(=O)N1CCN(c2ncnc3[nH]ccc23)CC12CC2 [Example 20, 7-(7H-Pyrrolo[2,3-d]pyrimidin-4-yl)-4,7-diaza-spiro[2.5]octane-4-sulfonic acid (4-cyano-butyl)-phenethyl-amide] | < 100 nM | < 100 nM | < 100 nM | – |
